{"source": "patent US4772599A", "about": "“Benzodiazepine derivatives and their preparation and use” (A/S Ferrosan, priority 1986, dated 1988)", "data": [{"tested_on": "benzodiazepine receptors", "experiment": "In vivo displacement of 3H-flunitrazepam from brain benzodiazepine receptors", "conditions": "mice (female, NMR), test substance i.p. 15 min before 3H-FNM i.v.; dose inhibiting 50% of specific 3H-FNM binding in forebrain", "description": "The pharmaceutical properties of the compounds of the invention can be illustrated by determining their capability for displacing radioactivity labelled flunitrazepam from benzodiazepine receptors.\nThe displacement activity of the compounds of the invention may be found by determining the ED50 value. The ED50 value represents the dose (mg/kg) of a test substance which causes the specific binding of flunitrazepam to benzodiazepine receptors in a living brain to be reduced to 50% of the control value.\nSuch an in vivo test is carried out as follow:\nPrinciple. Twenty minutes after a dose of ^3 H-flunitrazepam (^3 H-FNM) (200 μCi/kg, i.v.) the amount of specific ^3 H-FNM binding to brain benzodiazepine receptors has reached its maximal value.\nTest procedure. Suspensions of test substances (2 mg/ml) are prepared in 5% Duphasol-X (TM Duphar, caster oil-ethylene oxide derivative for emulsifying and solubilizing oil and other water-insoluble substances) by sonification for 10 min using a Branson B15 microtip ultrasonifier (setting 7). Groups of three mice (female, NMR, 18-22 grams) are injected with the test substance at 100 mg/kg intraperitoneally. Fifteen minutes after test substance administration the mice are challenged with 4 μCi intravenously of ^3 H-FNM (70-90 Ci/mole) in 200 μl physiological saline. Twenty minutes after ^3 H-FNM administration mice are sacrificed by decapitation, the forebrains rapidly excised (within 30 sec) and homogenized in 12 ml of icecold 25 mM KH2 PO4, pH 7.1, using an Ultra-Turrax™ homogenizer fitted with an N 10 shaft. Two aliquots of 1 ml are immediately filtered through Whatman GF/C glassfibre filters and washed with 2×5 ml of the above mentioned buffer. The amounts of radioactivity on the filters are determined by conventional scintillation counting. One group of untreated mice serves as control. One to three mice are injected with 25 μg/kg clonazepam i.p. 30 minutes before ^3 H-FNM to determine the amount of non-specific ^3 H-FNM binding, which should be between 8-15% of total binding. When doses of 100 mg/kg inhibit more than 50% of specific ^3 H-flunitrazepam binding, test substances are administered in doses, which are factors of 3.16 times lower than 100 mg/kg. The ED50 for a test substance is defined as that dose which inhibits 50% of specific ^3 H-FNM binding. Specific binding is the amount of binding in controls minus the amount of binding in clonazepam-treated mice.\nResults. The ED50 value is determined from dose response curves. If only one dose of test substance is administered the ED50 value is calculated as follows, provided that the inhibition of specific binding is within the range of 25-75%: [formula] where Co is specific binding in controls of Cx is specific binding in mice treated with test substance.", "units": {"In vivo displacement activity: ED50": "mg/kg"}, "values": [{"smiles": "COC(=O)c1cccc2c1C(=O)N(C)Cc1c(-c3nc(C4CC4)no3)ncn1-2", "In vivo displacement activity: ED50": 0.4}, {"smiles": "CCOC(=O)c1cccc2c1C(=O)N(C)Cc1c(-c3nc(C4CC4)no3)ncn1-2", "In vivo displacement activity: ED50": 1.4}, {"smiles": "CCc1noc(-c2cccc3c2C(=O)N(C)Cc2c(-c4nc(CC)no4)ncn2-3)n1", "In vivo displacement activity: ED50": 1.3}, {"smiles": "Cc1nc(-c2ncn3c2CN(C)C(=O)c2c(-c4nc(-c5ccccc5)no4)cccc2-3)no1", "In vivo displacement activity: ED50": 1.7}, {"smiles": "CCOC(=O)c1cccc2c1C(=O)N(C)Cc1c(-c3noc(C)n3)ncn1-2", "In vivo displacement activity: ED50": 1.5}]}]}
